For 23 compounds, IC50 results are on record in patent US20240391875A1, “ISOQUINOLINONES AND QUINOLINONES AS MODULATORS OF POLRMT” (Pretzel Therapeutics, Inc., priority 2021, published 2024).

Chain of POLRMT (O00411 42-1230): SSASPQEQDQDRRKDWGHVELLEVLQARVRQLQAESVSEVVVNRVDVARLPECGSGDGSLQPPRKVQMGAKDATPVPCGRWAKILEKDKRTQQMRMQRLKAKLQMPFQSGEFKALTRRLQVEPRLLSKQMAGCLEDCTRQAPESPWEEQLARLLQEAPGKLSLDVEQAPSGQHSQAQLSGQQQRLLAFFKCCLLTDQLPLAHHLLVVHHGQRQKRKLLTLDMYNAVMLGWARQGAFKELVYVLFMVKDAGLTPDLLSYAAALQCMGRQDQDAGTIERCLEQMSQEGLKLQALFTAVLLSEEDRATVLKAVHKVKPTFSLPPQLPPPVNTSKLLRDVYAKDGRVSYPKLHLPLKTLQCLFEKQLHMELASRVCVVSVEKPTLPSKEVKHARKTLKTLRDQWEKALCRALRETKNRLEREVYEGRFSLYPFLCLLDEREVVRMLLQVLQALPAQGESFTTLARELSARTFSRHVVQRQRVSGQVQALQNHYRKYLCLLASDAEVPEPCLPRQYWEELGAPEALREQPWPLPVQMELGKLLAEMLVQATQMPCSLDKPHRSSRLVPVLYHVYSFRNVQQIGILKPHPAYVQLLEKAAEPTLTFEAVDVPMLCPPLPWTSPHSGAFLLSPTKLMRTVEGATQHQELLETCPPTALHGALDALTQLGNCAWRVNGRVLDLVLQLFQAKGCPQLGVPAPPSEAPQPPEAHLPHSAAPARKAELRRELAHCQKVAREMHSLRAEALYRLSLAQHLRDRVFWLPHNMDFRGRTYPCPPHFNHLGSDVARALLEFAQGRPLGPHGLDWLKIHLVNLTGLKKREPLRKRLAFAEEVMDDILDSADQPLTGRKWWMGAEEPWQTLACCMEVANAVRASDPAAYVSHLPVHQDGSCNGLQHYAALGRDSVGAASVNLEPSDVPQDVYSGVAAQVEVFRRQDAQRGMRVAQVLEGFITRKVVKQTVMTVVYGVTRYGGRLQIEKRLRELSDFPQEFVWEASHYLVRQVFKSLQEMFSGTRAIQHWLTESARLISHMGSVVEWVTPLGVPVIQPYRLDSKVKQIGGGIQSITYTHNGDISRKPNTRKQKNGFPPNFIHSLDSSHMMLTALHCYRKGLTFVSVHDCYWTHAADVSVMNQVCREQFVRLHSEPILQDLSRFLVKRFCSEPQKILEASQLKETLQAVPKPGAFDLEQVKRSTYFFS

In this assay the target is POLRMT (Homo sapiens, UniProt O00411). The assay is described as follows: homogeneous TR-FRET assay of mitochondrial transcription (inhibition of POLRMT). Type of assay: biochemical. Particulars: isoquinolinone compounds (Table 1). Summed up:
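Recombinant POLRMT (7.5 nM) with TFB2M, TFAM and linearized LSP plasmid template, 500 μM NTPs, pH 7.5 Mg buffer; 60 min at 37° C. Reaction stopped with EDTA/high-salt buffer, 407 bp RNA transcript detected by hybridized ATTO647/Europium-cryptate probe pair; TR-FRET 665/620 nm ratio taken as transcript yield.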
(TR-FRET usually uses a lanthanide donor and a delayed reading to cut background.)
Consider `Cc1ccccc1-c1c[nH]c(=O)c2cc(O[C@H](C)C(=O)N3CCC[C@H](C(N)=O)C3)ccc12` [Example 94, (S)-1-((R)-2-((1-oxo-4-(o-tolyl)-1,2-dihydroisoquinolin-7-yl)oxy)propanoyl)piperidine-3-carboxamide], for which the IC50 amounted to 0.07 µM. On to `Cc1cccc(C)c1-c1c[nH]c(=O)c2cc(OCC#N)ccc12` [Example 99, 2-((4-(2,6-dimethylphenyl)-1-oxo-1,2-dihydroisoquinolin-7-yl)oxy)acetonitrile], for which the IC50 turned out to be 0.02 µM.

On to `C[C@@H]1CN(C(=O)[C@@H](C)Oc2ccc3c(-c4ccc(F)cc4Cl)c[nH]c(=O)c3c2)C[C@H](C)O1` [Example 100, 4-(2-chloro-4-fluorophenyl)-7-(((R)-1-((2S,6R)-2,6-dimethylmorpholino)-1-oxopropan-2-yl)oxy)isoquinolin-1(2H)-one], for which the IC50 came out at 0.1 µM. Then `C[C@@H](Oc1ccc2c(-c3ccc(F)cc3Cl)c[nH]c(=O)c2c1)C(=O)N1CCS(=O)(=O)CC1` [Example 101, (R)-4-(2-chloro-4-fluorophenyl)-7-((1-(1,1-dioxidothiomorpholino)-1-oxopropan-2-yl)oxy)isoquinolin-1(2H)-one], with 2 µM; and `COC[C@@H]1COCCN1C(=O)[C@@H](C)Oc1ccc2c(-c3ccc(F)cc3Cl)c[nH]c(=O)c2c1` [Example 102, 4-(2-chloro-4-fluorophenyl)-7-(((R)-1-((R)-3-(methoxymethyl)morpholino)-1-oxopropan-2-yl)oxy)isoquinolin-1(2H)-one], with 0.7 µM; and `COC[C@H]1COCCN1C(=O)[C@@H](C)Oc1ccc2c(-c3ccc(F)cc3Cl)c[nH]c(=O)c2c1` [Example 103, 4-(2-chloro-4-fluorophenyl)-7-(((R)-1-((S)-3-(methoxymethyl)morpholino)-1-oxopropan-2-yl)oxy)isoquinolin-1(2H)-one], with 0.7 µM. Then `C[C@@H](Oc1ccc2c(-c3ccc(F)cc3Cl)c[nH]c(=O)c2c1)C(=O)N1CCO[C@@H](CO)C1` [Example 104, 4-(2-chloro-4-fluorophenyl)-7-(((R)-1-((R)-2-(hydroxymethyl)morpholino)-1-oxopropan-2-yl)oxy)isoquinolin-1(2H)-one], with 1 µM; and `C[C@@H](Oc1ccc2c(-c3ccc(F)cc3Cl)c[nH]c(=O)c2c1)C(=O)N1CC2CCC(C1)O2` [Example 105, 7-(((2R)-1-(8-oxa-3-azabicyclo[3.2.1]octan-3-yl)-1-oxopropan-2-yl)oxy)-4-(2-chloro-4-fluorophenyl)isoquinolin-1(2H)-one], with 0.2 µM; and `C[C@@H](Oc1ccc2c(-c3ccc(F)cc3Cl)c[nH]c(=O)c2c1)C(=O)N1CCO[C@H](CO)C1` [Example 106, 4-(2-chloro-4-fluorophenyl)-7-(((R)-1-((S)-2-(hydroxymethyl)morpholino)-1-oxopropan-2-yl)oxy)isoquinolin-1(2H)-one], with 0.6 µM. Then `C[C@@H](Oc1ccc2c(-c3ccc(F)cc3Cl)c[nH]c(=O)c2c1)C(=O)N1CCOCC1(C)C` [Example 107, (R)-4-(2-chloro-4-fluorophenyl)-7-((1-(3,3-dimethylmorpholino)-1-oxopropan-2-yl)oxy)isoquinolin-1(2H)-one], with 0.2 µM; and `Cc1cc(F)cc(C)c1-c1c[nH]c(=O)c2cc(OCC(N)=O)ccc12` [Example 109, 2-((4-(4-fluoro-2,6-dimethylphenyl)-1-oxo-1,2-dihydroisoquinolin-7-yl)oxy)acetamide], with 7 µM; and `Cc1cc(F)cc(C)c1-c1c[nH]c(=O)c2cc(OCC(=O)O)ccc12` [Example 110, 2-((4-(4-fluoro-2,6-dimethylphenyl)-1-oxo-1,2-dihydroisoquinolin-7-yl)oxy)acetic acid], with 25 µM. The compound `Cc1cccc(C)c1-c1c[nH]c(=O)c2cc(O[C@H](C)C(=O)O)ccc12` [Example 111, (R)-2-((4-(2,6-dimethylphenyl)-1-oxo-1,2-dihydroisoquinolin-7-yl)oxy)propanoic acid] returned an IC50 of 0.09 µM.

In turn, `C[C@@H](Oc1ccc2c(-c3ccc(F)cc3Cl)c[nH]c(=O)c2c1)C(=O)N1CCOC[C@H]1C(=O)O` [Example 112, (S)-4-((R)-2-((4-(2-chloro-4-fluorophenyl)-1-oxo-1,2-dihydroisoquinolin-7-yl)oxy)propanoyl)morpholine-3-carboxylic acid] had an IC50 of 4 µM. Then `C[C@@H](Oc1ccc2c(-c3ccc(F)cc3Cl)c[nH]c(=O)c2c1)C(=O)N1CCOC[C@H]1CO` [Example 113, 4-(2-chloro-4-fluorophenyl)-7-(((R)-1-((R)-3-(hydroxymethyl)morpholino)-1-oxopropan-2-yl)oxy)isoquinolin-1(2H)-one], with 0.6 µM. Then `C[C@@H](Oc1ccc2c(-c3ccc(F)cc3Cl)c[nH]c(=O)c2c1)C(=O)N1CCOC[C@@H]1CO` [Example 114, 4-(2-chloro-4-fluorophenyl)-7-(((R)-1-((S)-3-(hydroxymethyl)morpholino)-1-oxopropan-2-yl)oxy)isoquinolin-1(2H)-one], with 0.2 µM.

On to `C[C@@H](Oc1ccc2c(-c3ccc(F)cc3Cl)c[nH]c(=O)c2c1)C(=O)N1CCOC[C@@H]1C(=O)O` [Example 115, (R)-4-((R)-2-((4-(2-chloro-4-fluorophenyl)-1-oxo-1,2-dihydroisoquinolin-7-yl)oxy)propanoyl)morpholine-3-carboxylic acid], for which the IC50 worked out at 0.4 µM. Then `CC(=O)N1CCN(C(=O)[C@@H](C)Oc2ccc3c(-c4ccc(F)cc4Cl)c[nH]c(=O)c3c2)CC1` [Example 116, (R)-7-((1-(4-acetylpiperazin-1-yl)-1-oxopropan-2-yl)oxy)-4-(2-chloro-4-fluorophenyl)isoquinolin-1(2H)-one], with 0.5 µM; and `CCC(=O)N1CCN(C(=O)[C@@H](C)Oc2ccc3c(-c4ccc(F)cc4Cl)c[nH]c(=O)c3c2)CC1` [Example 117, (R)-4-(2-chloro-4-fluorophenyl)-7-((1-oxo-1-(4-propionylpiperazin-1-yl)propan-2-yl)oxy)isoquinolin-1(2H)-one], with 0.5 µM. Then `C[C@@H](Oc1ccc2c(-c3ccc(F)cc3Cl)c[nH]c(=O)c2c1)C(=O)N1CCN(CC(F)(F)F)CC1` [Example 118, (R)-4-(2-chloro-4-fluorophenyl)-7-((1-oxo-1-(4-(2,2,2-trifluoroethyl)piperazin-1-yl)propan-2-yl)oxy)isoquinolin-1(2H)-one], with 0.4 µM; and `Cc1ccccc1-c1c[nH]c(=O)c2cc(OC(C)(C)C(=O)O)ccc12` [Example 119, 2-methyl-2-((1-oxo-4-(o-tolyl)-1,2-dihydroisoquinolin-7-yl)oxy)propanoic acid], with 0.7 µM; and `C[C@@H](Oc1ccc2c(-c3ccc(F)cc3Cl)c[nH]c(=O)c2c1)C(=O)N1CCO[C@@H](C(=O)O)C1` [Example 120, (R)-4-((R)-2-((4-(2-chloro-4-fluorophenyl)-1-oxo-1,2-dihydroisoquinolin-7-yl)oxy)propanoyl)morpholine-2-carboxylic acid], with 0.3 µM. In the case of `C[C@@H](Oc1ccc2c(-c3ccc(F)cc3Cl)c[nH]c(=O)c2c1)C(=O)N1CCO[C@H](C(=O)O)C1` [Example 121, (S)-4-((R)-2-((4-(2-chloro-4-fluorophenyl)-1-oxo-1,2-dihydroisoquinolin-7-yl)oxy)propanoyl)morpholine-2-carboxylic acid], the IC50 is 0.2 µM.

In general, IC50 refers to the midpoint of a concentration-inhibition curve.
